This is an account of results in patent publication US20250059162A1, “MULTI-PROTEIN DEGRADATION AGENT HAVING IMIDE SKELETON” (SUZHOU KINTOR PHARMACEUTICALS, INC., priority 2021, published 2025).

Holding throughout (type): cell-based
The target in one experiment is T1, GSPT1 protein (Homo sapiens, UniProt P15170).
T1 construct: degradation of myc and GSPT1 proteins in HL60 cells; endogenous in cells; host or cells: HL60
Put plainly: GSPT1 protein degradation in HL60 cells (Western blot). To be noted: for remaining GSPT1 protein at 0.01 µM: HL-60, compound at 10 nM, 24 h, gray value relative to Ctrl (DMSO), read-out: Remaining amount of GSPT1 protein (@10 nM/Ctrl). On the procedure:
(§1) HL60 cells in the exponential growth phase were digested and plated into a 6-well plate at 1×10^6 cells per well. The cell culture medium was RPMI-1640 (meilunbio, MA0215). After a day of adherent growth of the cells, the compound of the present invention was added as a test drug for culture, and proteins were extracted 24 h later (Ctrl meant adding only DMSO at the same volume).
(§2) In the 6-well plate, the culture medium RPMI-1640 (meilunbio, MA0215) was removed, and the cells were washed once with PBS, digested with trypsin, and centrifuged and collected separately into 1.5 mL centrifuge tubes. 100 μL of RIPA lysis buffer (containing 100 μM PMSF) was added to each tube, mixed thoroughly, allowed to stand on ice for 30 min and then centrifuged at 12000 rpm at 4° C. using a centrifuge for 20 min. The supernatant was used for Western blotting experiments. The sample can be stored at −80° C.
(§3) By using the BCA protein concentration determination kit (from Thermo Fisher, Cat. No. 23225), the BSA standard determination solution and the samples to be tested (the samples to be tested can be diluted and then tested) were prepared according to the table A below. Samples were added to the 96-well plate. Each well was supplemented with PBS to 20 μL, and then 200 μL of BCA working solution (prepared according to the kit) was added respectively and mixed evenly. The plate was placed at 60° C. for 10 min, and then the absorbance at 562 nm was detected. After the reading was recorded, a standard curve was plotted using concentration gradients of the standards, and the absorbance of the samples was substituted to calculate the protein concentration of the samples.
(§4) • 2.1 Protein denaturation: RIPA protein buffer (purchased from Solarbio, Cat. No. R0010) and 5× Loading Buffer (SDS, glycerin, bromophenol blue, TRIS) (purchased from Solarbio, Cat. No. P1040) were added, and the protein samples were denatured at 100° C. for 5 min. • 2.2 Sample loading and electrophoresis: 10% precast gel and the corresponding electrophoresis buffer were used. The same mass of protein sample and protein ladder (purchased from thermo, Cat. No. 26617) were loaded into each well, and electrophoresis at 200 V was performed for 30 min. • 2.3 […]: The gel was excised to remove the excess part. Transferring to PVDF membrane was performed by the wet transfer method (before use, it was necessary to activate the PVDF membrane with methanol for 1 min) at 300 mA for 2 h, during which a lot of heat was generated, and thus cooling with an ice box was required. • 2.4 Blocking: After the transferring, the PVDF membrane was placed in 5% skim milk and blocked with shaking at room temperature for 1 h. • 2.5 Incubating with primary antibody: The PVDF membrane was cut according to the molecular weight indicated on the marker and placed in c-myc (purchased from abcam, Cat. No. ab32072), or GSPT1 (purchased from abcam, Cat. No. ab234433), or CK1α (purchased from abcam, Cat. No. ab206652), or IKZF2 (purchased from proteintech, Cat. No. 13554-1-AP), and GAPDH (purchased from CST, Cat. No. #97166) primary antibodies. The antibodies were diluted with TBST buffer (a solution prepared from TRIS, KCL and NaCl and adjusted to pH 7.4 with hydrochloric acid, and Tween 20 was added) at a ratio of 1:1000, and blocked overnight on a shaker at 4° C. • 2.6 Incubating with secondary antibody: The PVDF membrane incubated with the primary antibody was washed with TBST for 3 times, each time for 10 min. After washing, the membrane was placed in the secondary antibody of the corresponding species, and incubated at room temperature in a shaker for 2 h. • 2.7 Washing membrane and exposure: After incubated with the secondary antibodies, the membrane was washed 3 times with TBST on a shaker, 10 minutes each time. […]

The subject of another experiment is HL60 cells. Put plainly: Anti-proliferation on HL60 cells (CellTiter-Glo, 3 days). Particulars: Homo sapiens, HL-60, 72 h, 3 days incubation, CTG luminescence, IC50 by XLfit, read-out: HL60 cells Proliferation inhibitory activity. On the procedure: HL60 cells (Cell Bank of Chinese Academy of Sciences) in the logarithmic growth phase were counted and plated evenly in a 96-well transparent bottom white plate at 20000 cells per well and 100 μL per well.
A certain amount of the compound of the present invention was weighed and diluted with DMSO to a 10 mM stock solution. The culture medium RPMI-1640 (meilunbio, MA0215) corresponding to the cells were taken, and the compound was diluted to the concentration required by the test, shaken gently and mixed evenly. 50 μL of the gradient dilution of the diluted compound was added to each well of the plated cells, and 50 μL of 0.1% DMSO was added to the control group. The plate was shaken gently, mixed evenly and incubated in a cell culture incubator for 3 days.
• 3.1 The CellTiter-Glo™ (CTG) (purchased from Promega, Cat. No. G9242) reagent was taken in advance from the −20° C. refrigerator and equilibrated to room temperature in the dark. Cell Titer-Glo buffer and Cell Titer-Glo substrate were mixed at a ratio of 1:1 to prepare a CTG detection reagent. • 3.2 The 96-well plate was taken out and inspected under a microscope for growth. • 3.3 The bottom of the 96-well plate was tagged with white paper, and then the plate was wrapped with tin foil paper, shaken at 37° C. at 300 r for 10 min and mixed evenly. • 3.4. 50 μL of CTG detection reagent was added to each well, Luminescence signal was detected using a microplate reader Biotek Synergy Hi, and the inhibition rate was calculated. IC50 values of the compounds were calculated by XLfit 5.5.0 software to evaluate the proliferation inhibitory activity on HL60 cells.
(In ATP-based viability assays light output follows the ATP content of the culture.)

Another experiment has as its target T2, c-Myc protein (Homo sapiens, UniProt P01106).
T2 construct: degradation of myc and GSPT1 proteins in HL60 cells; endogenous in cells; host or cells: HL60
In words: c-Myc protein degradation in HL60 cells (Western blot). Particulars: HL-60, compound at 10 nM, 24 h, gray value relative to Ctrl (DMSO), read-out: Remaining amount of c-Myc protein (@10 nM/Ctrl). The method, then:
as §1, §2, §3, §4

T2 sequence (P01106 whole entry): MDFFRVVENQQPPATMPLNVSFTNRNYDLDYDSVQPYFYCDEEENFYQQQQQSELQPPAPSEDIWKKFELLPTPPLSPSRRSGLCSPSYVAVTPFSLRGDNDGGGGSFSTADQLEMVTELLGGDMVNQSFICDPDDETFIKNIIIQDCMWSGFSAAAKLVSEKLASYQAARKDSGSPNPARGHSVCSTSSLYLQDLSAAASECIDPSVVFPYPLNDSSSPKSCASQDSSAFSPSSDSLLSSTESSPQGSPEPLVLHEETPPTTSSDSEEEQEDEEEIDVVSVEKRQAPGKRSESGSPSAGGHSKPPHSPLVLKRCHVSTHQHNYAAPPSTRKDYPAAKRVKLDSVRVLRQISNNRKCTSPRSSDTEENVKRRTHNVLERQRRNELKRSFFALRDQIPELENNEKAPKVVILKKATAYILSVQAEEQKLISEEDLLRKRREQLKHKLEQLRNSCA
T1 sequence (P15170 whole entry): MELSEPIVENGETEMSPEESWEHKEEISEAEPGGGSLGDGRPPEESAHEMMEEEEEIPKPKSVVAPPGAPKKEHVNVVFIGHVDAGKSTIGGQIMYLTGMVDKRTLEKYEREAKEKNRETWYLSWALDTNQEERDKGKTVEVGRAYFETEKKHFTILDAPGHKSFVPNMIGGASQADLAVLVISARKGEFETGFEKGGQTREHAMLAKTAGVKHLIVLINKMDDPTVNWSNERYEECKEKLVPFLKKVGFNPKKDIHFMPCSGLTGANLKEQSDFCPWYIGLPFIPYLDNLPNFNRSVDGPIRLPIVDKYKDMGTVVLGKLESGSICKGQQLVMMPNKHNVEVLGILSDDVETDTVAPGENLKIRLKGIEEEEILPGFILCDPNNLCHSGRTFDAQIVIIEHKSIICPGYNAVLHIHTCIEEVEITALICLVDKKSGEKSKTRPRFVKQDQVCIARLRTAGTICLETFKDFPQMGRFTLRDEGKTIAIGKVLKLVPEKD

As for `O=C1CCC(N2Cc3cc(CNCC4(F)CCN(c5ncc(-c6cccc(Cl)c6)cc5C(F)(F)F)CC4)ccc3C2=O)C(=O)N1` (stereo not drawn) [Compound A83], on GSPT1 protein, the remaining GSPT1 protein at 0.01 µM stood at 0%. For the same compound, the IC50 in the experiment with HL60 cells stood at 1.2 nM. Further, the remaining activity at 0.01 µM at c-Myc protein is 4%.
Turning to `O=C1CCC(N2Cc3cc(NC(=O)CC4CCN(c5ncc(-c6cccc7ccccc67)o5)CC4)ccc3C2=O)C(=O)N1` (stereo not drawn) [Compound A28], the IC50 with HL60 cells stood at 0.9 nM. For the same compound, the remaining activity at 0.01 µM at c-Myc protein came out at 43%.
With `O=C1CCC(N2Cc3cc(C(=O)NCC4CCN(c5nccc(-c6ccc7ccccc7c6)n5)CC4)ccc3C2=O)C(=O)N1` (stereo not drawn) [Compound A38], the IC50 with HL60 cells came out at 0.9 nM. Besides, the remaining activity at 0.01 µM at c-Myc protein is 52%.
Regarding `O=C1CCC(N2Cc3cc(CNCC4CCN(c5ncc(-c6ccccc6Cl)cc5F)CC4)ccc3C2=O)C(=O)N1` (stereo not drawn) [Compound A72], the remaining GSPT1 protein at 0.01 µM at GSPT1 protein was determined as 0%. Besides, in the experiment on HL60 cells, the IC50 is 63 nM. Also, on c-Myc protein, the remaining activity at 0.01 µM is 16%.
`O=C1CCC(N2Cc3cc(NC(=O)CC4CCN(c5ccc(-c6cccc7cccnc67)cn5)CC4)ccc3C2=O)C(=O)N1` (stereo not drawn) [Compound A43]: the IC50 in the experiment on HL60 cells is under 0.2 nM. In addition, at c-Myc protein, the remaining activity at 0.01 µM amounted to 23%.
As for `N#Cc1cc(-c2cccc(Cl)c2)ccc1N1CCC(CNCc2ccc3c(c2)CN(C2CCC(=O)NC2=O)C3=O)CC1` (stereo not drawn) [Compound A103], on GSPT1 protein, the remaining GSPT1 protein at 0.01 µM turned out to be 0%. The IC50 in the experiment with HL60 cells was 1.5 nM. Moreover, the remaining activity at 0.01 µM at c-Myc protein came out at 6%.
Take `O=C1CCC(N2Cc3cc(NC(=O)CC4CCN(c5ccc(-c6cccc7ccccc67)nc5)CC4)ccc3C2=O)C(=O)N1` (stereo not drawn) [Compound A37]: the IC50 in the experiment with HL60 cells came out at 0.2 nM. In addition, on c-Myc protein, the remaining activity at 0.01 µM amounted to 44%.
Take `O=C1CCC(N2Cc3cc(NC(=O)CC4CCN(c5ccc(-c6cccc7cccc(F)c67)cn5)CC4)ccc3C2=O)C(=O)N1` (stereo not drawn) [Compound A47]: the IC50 in the experiment on HL60 cells was under 0.2 nM. The remaining activity at 0.01 µM on c-Myc protein stood at 19%.
On to `O=C1CCC(n2nc3cc(CNCC4CCN(c5ncc(-c6cccc(Cl)c6)cc5C(F)(F)F)CC4)ccn3c2=O)C(=O)N1` (stereo not drawn) [Compound A146], for which, on GSPT1 protein, the “Degradation of GSPT1 protein in HL60 cells at 300 nM (FIG. 2, FIG. 3, in words)” value is on record as “significantly degrade GSPT1 protein”. In addition, the IC50 with HL60 cells was 139 nM.
On to `O=C1CCC(N2Cc3cc(NC(=O)CC4CCN(c5cc(-c6cccc7ccccc67)ccn5)CC4)ccc3C2=O)C(=O)N1` (stereo not drawn) [Compound A17], for which the IC50 in the experiment on HL60 cells was found to be 1.2 nM. Moreover, the remaining activity at 0.01 µM on c-Myc protein came out at 23%.
For `O=C1CCC(N2Cc3cc(C(=O)NCC4CCN(c5ncc(-c6cccc7ccccc67)cn5)CC4)ccc3C2=O)C(=O)N1` (stereo not drawn) [Compound A29], the IC50 in the experiment with HL60 cells stood at 0.2 nM. Further, at c-Myc protein, the remaining activity at 0.01 µM came to 13%.
As to `O=C1CCC(N2Cc3cc(CNCC4CCN(c5ncc(-c6cccc(Cl)c6)cn5)CC4)ccc3C2=O)C(=O)N1` (stereo not drawn) [Compound A66], the IC50 in the experiment on HL60 cells is under 0.2 nM. In addition, on c-Myc protein, the remaining activity at 0.01 µM was 9%.
The like results for `O=C1CCC(N2Cc3cc(NC(=O)CC4CCN(c5ncc(-c6cccc(Cl)c6)cn5)CC4)ccc3C2=O)C(=O)N1` (stereo not drawn) [Compound A53] were, in that order, under 0.2 nM and 10%.
On to `O=C1CCC(N2Cc3ccc(CNCC4CCN(c5ncc(-c6cccc(Cl)c6)cc5C(F)(F)F)CC4)cc3C2)C(=O)N1` (stereo not drawn) [Compound A145], for which the “Degradation of GSPT1 protein in HL60 cells at 300 nM (FIG. 2, FIG. 3, in words)” value on GSPT1 protein was “significantly degrade GSPT1 protein”. Moreover, in the experiment with HL60 cells, the IC50 was found to be 387 nM.
On to `O=C1CCC(N2Cc3cc(NC(=O)CC4CCN(c5ncc(-c6cccc7ccccc67)cn5)CC4)ccc3C2=O)C(=O)N1` (stereo not drawn) [Compound A30], for which the IC50 in the experiment with HL60 cells is under 0.2 nM. The remaining activity at 0.01 µM on c-Myc protein turned out to be 14%.
The like results for `O=C1CCC(N2Cc3cc(NC(=O)CC4CCN(c5ncc(-c6cccc7ccccc67)s5)CC4)ccc3C2=O)C(=O)N1` (stereo not drawn) [Compound A24] were, in that order, 0.5 nM and 0%.
Take `O=C1CCC(N2Cc3cc(C(=O)NCC4CCN(c5ccc(-c6nccc7ccccc67)cn5)CC4)ccc3C2=O)C(=O)N1` (stereo not drawn) [Compound A45]: the IC50 with HL60 cells is under 0.2 nM.
Still for that read-out and setting: the value for `O=C1CCC(N2Cc3cc(NC(=O)CC4CCN(c5ncc(C6CC6)cn5)CC4)ccc3C2=O)C(=O)N1` (stereo not drawn) [Compound A49] was 1.5 nM; that for `O=C1CCC(N2Cc3cc(CNCC4CCN(c5ncc(-n6c7ccccc7c7ccccc76)cc5C(F)(F)F)CC4)ccc3C2=O)C(=O)N1` (stereo not drawn) [Compound A129] was 120 nM.
Still for that read-out and setting: in the case of `O=C1CCC(N2Cc3cc(NC(=O)CC4CCN(C(=O)NCc5cccc6ccccc56)CC4)ccc3C2=O)C(=O)N1` (stereo not drawn) [Compound A1] it was 190 nM; in that of `O=C1CCC(NC(=O)c2ccc(CNCC3CCN(c4ncc(-c5cccc(Cl)c5)cc4C(F)(F)F)CC3)c(F)c2)C(=O)N1` (stereo not drawn) [Compound A159], 6700 nM; in that of `O=C1CCC(N2Cc3c(ccc(CNCC4CCN(c5ncc(-c6cccc(Cl)c6)cc5C(F)(F)F)CC4)c3F)C2=O)C(=O)N1` (stereo not drawn) [Compound A139], 17.7 nM.
For `O=C1C[C@H](N2Cc3cc(CNCC4CCN(c5ncc(-c6cccc(F)c6)cc5C(F)(F)F)CC4)ccc3C2=O)C(=O)N1` [Compound A172], in the experiment on HL60 cells, the IC50 was 9990 nM.
Take `O=C1CCC(N2Cc3cc(NC(=O)CC4CCN(c5ccc(-c6cccc(Cl)c6)cn5)CC4)ccc3C2=O)C(=O)N1` (stereo not drawn) [Compound A56]: the IC50 in the experiment with HL60 cells was under 0.2 nM.
On the same count and under the same terms, in the case of `O=C1CCC(NC(=O)c2ccc(CNCC3CCN(c4ncc(-c5cccc(Cl)c5)cc4C(F)(F)F)CC3)cn2)C(=O)N1` (stereo not drawn) [Compound A156] it was 268 nM; in that of `O=C1CCC(N2Cc3cc(NC(=O)CC4CCN(c5ccc(-c6cccc(Cl)c6)nc5)CC4)ccc3C2=O)C(=O)N1` (stereo not drawn) [Compound A57], under 0.2 nM; in that of `O=C1CCC(n2nnc3ccc(CNCC4CCN(c5ncc(-c6cccc(Cl)c6)cc5C(F)(F)F)CC4)cc3c2=O)C(=O)N1` (stereo not drawn) [Compound A154], 116 nM.
With `Cc1cccc(-c2cnc(N3CCC(CNCc4ccc5c(c4)CN([C@H]4CCC(=O)NC4=O)C5=O)CC3)c(C(F)(F)F)c2)c1` [Compound A123], in the experiment with HL60 cells, the IC50 is under 3.04 nM.
Still for that read-out and setting: in the case of `O=C1CCC(NC(=O)c2ccc(C(=O)NCC3CCN(c4ncc(-c5cccc(Cl)c5)cc4C(F)(F)F)CC3)cc2)C(=O)N1` (stereo not drawn) [Compound A166] it was 2670 nM.
